What was measured:
Experiment in all cases: KINOMEscan binding
[1] = biological target: T1, BLK (Homo sapiens, UniProt P51451); conditions: read-out: Percent Control
T1 construct: purchased Eurofins DiscoverX KINOMEscan

[2] = biological target: T2, VPS34 (Homo sapiens, UniProt Q8NEB9); conditions: read-out: Percent Control
T2 construct: purchased Eurofins DiscoverX KINOMEscan

[3] = biological target: T3, ROCK1 (Homo sapiens, UniProt Q13464)
T3 construct: purchased Eurofins DiscoverX KINOMEscan
T3 sequence (Q13464 whole entry): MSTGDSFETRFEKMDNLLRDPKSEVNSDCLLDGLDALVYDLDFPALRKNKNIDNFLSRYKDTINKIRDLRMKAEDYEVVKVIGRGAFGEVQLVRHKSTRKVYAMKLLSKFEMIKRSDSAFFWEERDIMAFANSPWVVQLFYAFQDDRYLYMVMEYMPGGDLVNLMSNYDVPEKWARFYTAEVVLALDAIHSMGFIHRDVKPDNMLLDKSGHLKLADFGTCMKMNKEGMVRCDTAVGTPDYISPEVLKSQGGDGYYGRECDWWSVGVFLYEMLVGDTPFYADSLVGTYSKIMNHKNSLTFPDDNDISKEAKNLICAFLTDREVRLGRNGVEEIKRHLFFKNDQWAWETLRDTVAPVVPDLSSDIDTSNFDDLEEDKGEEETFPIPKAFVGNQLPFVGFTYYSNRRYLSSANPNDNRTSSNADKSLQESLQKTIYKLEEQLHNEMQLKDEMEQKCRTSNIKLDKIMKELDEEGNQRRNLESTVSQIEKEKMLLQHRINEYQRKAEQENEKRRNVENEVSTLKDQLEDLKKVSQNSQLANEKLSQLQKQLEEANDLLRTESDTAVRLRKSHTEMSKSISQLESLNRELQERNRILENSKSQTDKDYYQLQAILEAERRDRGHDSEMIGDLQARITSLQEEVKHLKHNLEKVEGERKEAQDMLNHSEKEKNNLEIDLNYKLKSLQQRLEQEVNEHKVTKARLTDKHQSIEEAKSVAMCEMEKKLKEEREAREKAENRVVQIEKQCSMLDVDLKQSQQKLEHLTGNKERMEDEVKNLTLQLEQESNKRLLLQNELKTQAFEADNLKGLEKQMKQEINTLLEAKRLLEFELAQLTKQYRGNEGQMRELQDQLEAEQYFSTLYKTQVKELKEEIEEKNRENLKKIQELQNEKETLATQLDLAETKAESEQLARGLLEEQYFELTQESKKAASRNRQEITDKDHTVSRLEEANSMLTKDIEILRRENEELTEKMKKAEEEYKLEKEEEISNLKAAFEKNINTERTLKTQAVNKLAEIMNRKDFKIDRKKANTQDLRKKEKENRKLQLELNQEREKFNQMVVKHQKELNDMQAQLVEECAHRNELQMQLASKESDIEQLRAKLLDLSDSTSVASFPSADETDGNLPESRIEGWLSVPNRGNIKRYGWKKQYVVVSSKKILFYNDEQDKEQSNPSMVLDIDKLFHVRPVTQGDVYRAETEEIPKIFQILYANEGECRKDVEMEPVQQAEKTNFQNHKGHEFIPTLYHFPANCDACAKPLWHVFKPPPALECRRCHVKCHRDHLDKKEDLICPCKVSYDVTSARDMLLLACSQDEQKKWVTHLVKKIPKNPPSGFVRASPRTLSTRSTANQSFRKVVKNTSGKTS

[4] = biological target: T4, FLT3(K663Q) (Homo sapiens, UniProt P36888, K663Q); conditions: read-out: Percent Control
T4 construct: purchased Eurofins DiscoverX KINOMEscan

[5] = biological target: T5, HIPK1 (Homo sapiens, UniProt Q86Z02); conditions: read-out: Percent Control
T5 construct: purchased Eurofins DiscoverX KINOMEscan

[6] = biological target: T6, FLT3 (Homo sapiens, UniProt P36888); conditions: read-out: Percent Control
T6 construct: purchased Eurofins DiscoverX KINOMEscan

[7] = biological target: T7, AURKB (Homo sapiens, UniProt Q96GD4); conditions: read-out: Percent Control
T7 construct: purchased Eurofins DiscoverX KINOMEscan

[8] = biological target: T8, LKB1 (Homo sapiens, UniProt Q15831); conditions: read-out: Percent Control
T8 construct: purchased Eurofins DiscoverX KINOMEscan

[9] = biological target: T9, AXL (Homo sapiens, UniProt P30530); conditions: read-out: Percent Control
T9 construct: purchased Eurofins DiscoverX KINOMEscan

[10] = biological target: T10, RET(M918T) (Homo sapiens, UniProt P07949, M918T); conditions: read-out: Percent Control
T10 construct: purchased Eurofins DiscoverX KINOMEscan

[11] = biological target: T11, STK33 (Homo sapiens, UniProt Q9BYT3); conditions: read-out: Percent Control
T11 construct: purchased Eurofins DiscoverX KINOMEscan

[12] = biological target: T12, BUB1 (Homo sapiens, UniProt O43683); conditions: read-out: Percent Control
T12 construct: purchased Eurofins DiscoverX KINOMEscan

[13] = biological target: T13, VRK2 (Homo sapiens, UniProt Q86Y07); conditions: read-out: Percent Control
T13 construct: purchased Eurofins DiscoverX KINOMEscan

[14] = biological target: T14, MEK1 (Homo sapiens, UniProt Q02750); conditions: read-out: Percent Control
T14 construct: purchased Eurofins DiscoverX KINOMEscan

[15] = biological target: T15, AMPK-alpha1 (Homo sapiens, UniProt Q13131); conditions: read-out: Percent Control
T15 construct: purchased Eurofins DiscoverX KINOMEscan
T15 sequence (Q13131 whole entry): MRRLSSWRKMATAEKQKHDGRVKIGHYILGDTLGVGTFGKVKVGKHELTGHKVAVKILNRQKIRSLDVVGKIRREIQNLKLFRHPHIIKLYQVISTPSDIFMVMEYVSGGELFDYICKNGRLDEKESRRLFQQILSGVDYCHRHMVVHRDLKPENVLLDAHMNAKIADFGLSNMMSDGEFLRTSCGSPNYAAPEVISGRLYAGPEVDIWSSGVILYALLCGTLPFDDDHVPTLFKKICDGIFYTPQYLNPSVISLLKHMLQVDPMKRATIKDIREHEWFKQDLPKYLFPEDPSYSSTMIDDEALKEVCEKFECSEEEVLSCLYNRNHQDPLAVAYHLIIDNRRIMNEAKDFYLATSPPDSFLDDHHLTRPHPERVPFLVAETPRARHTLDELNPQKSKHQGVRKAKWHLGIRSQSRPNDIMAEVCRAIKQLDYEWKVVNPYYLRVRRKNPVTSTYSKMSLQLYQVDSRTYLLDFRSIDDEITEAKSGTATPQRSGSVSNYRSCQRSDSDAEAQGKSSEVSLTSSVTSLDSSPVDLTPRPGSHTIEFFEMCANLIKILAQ

[16] = biological target: T16, CLK4 (Homo sapiens, UniProt Q9HAZ1); conditions: read-out: Percent Control
T16 construct: purchased Eurofins DiscoverX KINOMEscan

[17] = biological target: T17, FGFR3(G697C) (Homo sapiens, UniProt P22607, G697C); conditions: read-out: Percent Control
T17 construct: purchased Eurofins DiscoverX KINOMEscan
T17 sequence (P22607 23-806 G697C): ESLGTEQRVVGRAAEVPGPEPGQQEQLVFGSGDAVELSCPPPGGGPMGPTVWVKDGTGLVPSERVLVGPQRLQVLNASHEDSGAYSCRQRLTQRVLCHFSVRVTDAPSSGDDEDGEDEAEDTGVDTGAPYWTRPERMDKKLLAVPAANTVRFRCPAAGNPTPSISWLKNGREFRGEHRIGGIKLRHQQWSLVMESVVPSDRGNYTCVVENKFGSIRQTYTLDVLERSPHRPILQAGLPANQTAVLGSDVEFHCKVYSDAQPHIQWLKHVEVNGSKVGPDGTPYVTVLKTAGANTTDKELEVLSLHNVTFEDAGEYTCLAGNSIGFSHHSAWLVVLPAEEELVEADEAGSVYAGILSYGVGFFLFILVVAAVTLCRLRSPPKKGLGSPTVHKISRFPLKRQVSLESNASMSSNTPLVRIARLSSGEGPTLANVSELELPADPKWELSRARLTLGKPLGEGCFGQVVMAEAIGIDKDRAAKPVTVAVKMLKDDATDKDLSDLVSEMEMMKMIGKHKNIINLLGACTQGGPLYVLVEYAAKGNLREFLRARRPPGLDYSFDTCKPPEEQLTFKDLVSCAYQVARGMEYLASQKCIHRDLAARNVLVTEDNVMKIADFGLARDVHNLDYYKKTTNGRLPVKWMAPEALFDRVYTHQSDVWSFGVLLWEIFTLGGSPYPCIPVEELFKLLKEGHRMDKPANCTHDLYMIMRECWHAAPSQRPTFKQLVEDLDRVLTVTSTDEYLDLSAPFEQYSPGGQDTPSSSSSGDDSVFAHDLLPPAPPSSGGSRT

[18] = biological target: T18, PFTK1 (Homo sapiens, UniProt O94921); conditions: read-out: Percent Control
T18 construct: purchased Eurofins DiscoverX KINOMEscan

[19] = biological target: T19, PIK3CA (Homo sapiens, UniProt P42336); conditions: read-out: Percent Control
T19 construct: purchased Eurofins DiscoverX KINOMEscan

[20] = biological target: T20, ZAK (Homo sapiens, UniProt Q9NYL2); conditions: read-out: Percent Control
T20 construct: purchased Eurofins DiscoverX KINOMEscan

[21] = biological target: T21, MAP4K3 (Homo sapiens, UniProt Q8IVH8); conditions: read-out: Percent Control
T21 construct: purchased Eurofins DiscoverX KINOMEscan

[22] = biological target: T22, ERK2 (Homo sapiens, UniProt P28482); conditions: read-out: Percent Control
T22 construct: purchased Eurofins DiscoverX KINOMEscan
T22 sequence (P28482 whole entry): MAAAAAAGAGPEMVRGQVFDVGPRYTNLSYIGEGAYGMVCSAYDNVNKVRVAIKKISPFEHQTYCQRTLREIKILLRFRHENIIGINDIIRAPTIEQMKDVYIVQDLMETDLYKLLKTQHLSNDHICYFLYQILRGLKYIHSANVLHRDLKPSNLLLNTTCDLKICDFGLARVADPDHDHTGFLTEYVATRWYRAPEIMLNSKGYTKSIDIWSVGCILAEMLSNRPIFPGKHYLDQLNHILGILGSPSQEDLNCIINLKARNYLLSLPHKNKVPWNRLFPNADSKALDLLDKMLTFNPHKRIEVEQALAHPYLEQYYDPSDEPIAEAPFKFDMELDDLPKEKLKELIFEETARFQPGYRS

[23] = biological target: T23, ERBB2 (Homo sapiens, UniProt P04626); conditions: read-out: Percent Control
T23 construct: purchased Eurofins DiscoverX KINOMEscan

[24] = biological target: T24, MELK (Homo sapiens, UniProt Q14680); conditions: read-out: Percent Control
T24 construct: purchased Eurofins DiscoverX KINOMEscan

[25] = biological target: T25, PKMYT1 (Homo sapiens, UniProt Q99640); conditions: read-out: Percent Control
T25 construct: purchased Eurofins DiscoverX KINOMEscan

[26] = biological target: T26, CAMK1G (Homo sapiens, UniProt Q96NX5); conditions: read-out: Percent Control
T26 construct: purchased Eurofins DiscoverX KINOMEscan
T26 sequence (Q96NX5 whole entry): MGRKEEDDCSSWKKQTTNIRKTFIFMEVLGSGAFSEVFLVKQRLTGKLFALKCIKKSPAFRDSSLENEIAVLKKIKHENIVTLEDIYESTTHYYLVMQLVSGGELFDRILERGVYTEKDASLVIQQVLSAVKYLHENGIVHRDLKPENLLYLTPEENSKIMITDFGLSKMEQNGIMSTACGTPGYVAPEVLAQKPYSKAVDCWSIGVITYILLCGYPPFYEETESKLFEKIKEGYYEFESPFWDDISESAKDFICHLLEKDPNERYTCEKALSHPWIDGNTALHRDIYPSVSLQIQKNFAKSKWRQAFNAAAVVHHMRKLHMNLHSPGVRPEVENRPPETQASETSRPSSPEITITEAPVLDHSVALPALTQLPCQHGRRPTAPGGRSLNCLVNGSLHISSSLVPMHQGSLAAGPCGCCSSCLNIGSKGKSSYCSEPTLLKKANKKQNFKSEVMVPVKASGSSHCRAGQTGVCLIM

[27] = biological target: T27, PRKCE (Homo sapiens, UniProt Q02156); conditions: read-out: Percent Control
T27 construct: purchased Eurofins DiscoverX KINOMEscan

[28] = biological target: T28, PCTK1 (Homo sapiens, UniProt Q00536); conditions: read-out: Percent Control
T28 construct: purchased Eurofins DiscoverX KINOMEscan

[29] = biological target: T29, TYRO3 (Homo sapiens, UniProt Q06418); conditions: read-out: Percent Control
T29 construct: purchased Eurofins DiscoverX KINOMEscan

[30] = biological target: T30, CDK3 (Homo sapiens, UniProt Q00526); conditions: read-out: Percent Control
T30 construct: purchased Eurofins DiscoverX KINOMEscan

[31] = biological target: T31, FAK (Homo sapiens, UniProt Q05397); conditions: read-out: Percent Control
T31 construct: purchased Eurofins DiscoverX KINOMEscan

[32] = biological target: T32, LIMK1 (Homo sapiens, UniProt P53667); conditions: read-out: Percent Control
T32 construct: purchased Eurofins DiscoverX KINOMEscan

[33] = biological target: T33, RIPK2 (Homo sapiens, UniProt O43353); conditions: read-out: Percent Control
T33 construct: purchased Eurofins DiscoverX KINOMEscan
T33 sequence (O43353 whole entry): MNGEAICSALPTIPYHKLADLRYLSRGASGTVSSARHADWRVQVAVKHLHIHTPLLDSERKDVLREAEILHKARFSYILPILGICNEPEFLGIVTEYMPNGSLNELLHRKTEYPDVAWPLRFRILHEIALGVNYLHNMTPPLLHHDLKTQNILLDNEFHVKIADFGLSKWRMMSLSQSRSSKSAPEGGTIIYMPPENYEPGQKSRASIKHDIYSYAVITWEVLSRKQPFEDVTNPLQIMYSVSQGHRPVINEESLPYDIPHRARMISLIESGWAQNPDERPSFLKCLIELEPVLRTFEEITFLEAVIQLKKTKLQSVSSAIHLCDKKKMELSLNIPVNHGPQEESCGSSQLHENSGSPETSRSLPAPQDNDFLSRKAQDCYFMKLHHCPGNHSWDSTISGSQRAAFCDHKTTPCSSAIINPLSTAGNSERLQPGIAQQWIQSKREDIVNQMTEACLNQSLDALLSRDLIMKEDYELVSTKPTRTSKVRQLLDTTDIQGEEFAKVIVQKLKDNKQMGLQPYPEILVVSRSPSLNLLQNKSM

[34] = biological target: T34, p38-beta (Homo sapiens, UniProt Q15759); conditions: read-out: Percent Control
T34 construct: purchased Eurofins DiscoverX KINOMEscan
T34 sequence (Q15759 whole entry): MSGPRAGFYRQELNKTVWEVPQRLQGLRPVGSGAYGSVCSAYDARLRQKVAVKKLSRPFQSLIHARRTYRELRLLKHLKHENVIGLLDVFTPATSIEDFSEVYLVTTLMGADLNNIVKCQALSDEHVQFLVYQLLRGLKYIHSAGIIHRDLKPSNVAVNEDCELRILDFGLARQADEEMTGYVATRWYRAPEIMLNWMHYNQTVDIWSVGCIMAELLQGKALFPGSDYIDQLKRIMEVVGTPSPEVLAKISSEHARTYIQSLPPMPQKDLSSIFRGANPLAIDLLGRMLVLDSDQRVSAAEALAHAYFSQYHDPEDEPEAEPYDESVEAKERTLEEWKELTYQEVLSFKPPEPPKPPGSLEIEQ

[35] = biological target: T35, CAMKK1 (Homo sapiens, UniProt Q8N5S9); conditions: read-out: Percent Control
T35 construct: purchased Eurofins DiscoverX KINOMEscan

[36] = biological target: T36, JAK3(JH1domain-catalytic) (Homo sapiens, UniProt P52333); conditions: read-out: Percent Control
T36 construct: JAK3(JH1domain-catalytic); purchased Eurofins DiscoverX KINOMEscan

[37] = biological target: T37, PYK2 (Homo sapiens, UniProt Q14289); conditions: read-out: Percent Control
T37 construct: purchased Eurofins DiscoverX KINOMEscan

[38] = biological target: T38, IRAK3 (Homo sapiens, UniProt Q9Y616); conditions: read-out: Percent Control
T38 construct: purchased Eurofins DiscoverX KINOMEscan
T38 sequence (Q9Y616 whole entry): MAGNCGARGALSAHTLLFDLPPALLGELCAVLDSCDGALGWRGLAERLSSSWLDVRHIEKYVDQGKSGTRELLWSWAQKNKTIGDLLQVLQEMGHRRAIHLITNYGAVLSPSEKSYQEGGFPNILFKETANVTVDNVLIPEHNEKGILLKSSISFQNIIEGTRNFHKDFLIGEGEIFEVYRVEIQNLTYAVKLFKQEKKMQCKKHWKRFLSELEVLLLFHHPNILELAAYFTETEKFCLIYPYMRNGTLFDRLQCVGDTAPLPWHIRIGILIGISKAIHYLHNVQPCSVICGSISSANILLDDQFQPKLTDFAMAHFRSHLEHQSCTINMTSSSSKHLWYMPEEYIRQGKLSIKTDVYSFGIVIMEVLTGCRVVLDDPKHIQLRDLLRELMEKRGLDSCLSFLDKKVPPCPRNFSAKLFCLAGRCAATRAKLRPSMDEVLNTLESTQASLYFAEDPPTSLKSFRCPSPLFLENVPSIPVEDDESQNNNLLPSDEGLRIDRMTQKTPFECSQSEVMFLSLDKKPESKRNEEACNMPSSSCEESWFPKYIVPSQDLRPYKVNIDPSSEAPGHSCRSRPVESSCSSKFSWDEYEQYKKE

[39] = biological target: T39, CAMK1B (Homo sapiens, UniProt Q6P2M8); conditions: read-out: Percent Control
T39 construct: purchased Eurofins DiscoverX KINOMEscan

[40] = biological target: T40, NEK1 (Homo sapiens, UniProt Q96PY6); conditions: read-out: Percent Control
T40 construct: purchased Eurofins DiscoverX KINOMEscan

[41] = biological target: T41, CSNK1G3 (Homo sapiens, UniProt Q9Y6M4); conditions: read-out: Percent Control
T41 construct: purchased Eurofins DiscoverX KINOMEscan

[42] = biological target: T42, HUNK (Homo sapiens, UniProt P57058); conditions: read-out: Percent Control
T42 construct: purchased Eurofins DiscoverX KINOMEscan

[43] = biological target: T43, MAST1 (Homo sapiens, UniProt Q9Y2H9); conditions: read-out: Percent Control
T43 construct: purchased Eurofins DiscoverX KINOMEscan

[44] = biological target: T44, SBK1 (Homo sapiens, UniProt Q52WX2); conditions: read-out: Percent Control
T44 construct: purchased Eurofins DiscoverX KINOMEscan

CC(C)NC(=O)COc1cccc(-c2nc(Nc3ccc4[nH]ncc4c3)c3ccccc3n2)c1 [KD025, 2-(3-(4-((1H-indazol-5-yl)amino)quinazolin-2-yl)phenoxy)-N-isopropylacetamide]
remaining binding at 10 µM [1]: 11% | remaining binding at 10 µM [2]: 27% | ROCK1 vs. ROCK2 in POC ([3]; 10 μM): 900 fold | remaining binding at 10 µM ([3]; ROCK1, read-out: Percent Control): 45% | remaining binding at 10 µM [4]: 55% | remaining binding at 10 µM [5]: 58% | remaining binding at 10 µM [6]: 60% | remaining binding at 10 µM [7]: 61% | remaining binding at 10 µM [8]: 63% | remaining binding at 10 µM [9]: 66% | remaining binding at 10 µM [10]: 66% | remaining binding at 10 µM [11]: 67% | remaining binding at 10 µM [12]: 69% | remaining binding at 10 µM [13]: 71% | remaining binding at 10 µM [14]: 72% | remaining binding at 10 µM [15]: 76% | remaining binding at 10 µM [16]: 77% | remaining binding at 10 µM [17]: 77% | remaining binding at 10 µM [18]: 77% | remaining binding at 10 µM [19]: 77% | remaining binding at 10 µM [20]: 77% | remaining binding at 10 µM [21]: 78% | remaining binding at 10 µM [22]: 79% | remaining binding at 10 µM [23]: 81% | remaining binding at 10 µM [24]: 83% | remaining binding at 10 µM [25]: 83% | remaining binding at 10 µM [26]: 88% | remaining binding at 10 µM [27]: 88% | remaining binding at 10 µM [28]: 91% | remaining binding at 10 µM [29]: 91% | remaining binding at 10 µM [30]: 92% | remaining binding at 10 µM [31]: 92% | remaining binding at 10 µM [32]: 92% | remaining binding at 10 µM [33]: 92% | remaining binding at 10 µM [34]: 93% | remaining binding at 10 µM [35]: 94% | remaining binding at 10 µM [36]: 94% | remaining binding at 10 µM [37]: 95% | remaining binding at 10 µM [38]: 96% | remaining binding at 10 µM [39]: 97% | remaining binding at 10 µM [40]: 99% | remaining binding at 10 µM [41]: 100% | remaining binding at 10 µM [42]: 100% | remaining binding at 10 µM [43]: 100% | remaining binding at 10 µM [44]: 100%

Source: publication PMC8401933 (Molecules, 2021)
